We go through 23 compounds from patent US11401306B2, “HPV16 non HLA-restricted t-cell vaccines, compositions and methods of use thereof” (priority 2016, dated 2022).

No end group written: not given here.

Assay [1] relates to HPV-specific T-cell response (splenocytes). The assay can be described thus: IFN-g ELISPOT on splenocytes of vaccinated humanized HLA-A2 transgenic mice. In kind it is in vivo. The settings on record: for Immune Response, Method: ELISPOT: HLA-A2 humanized transgenic mice, IFN-gamma ELISPOT. An excerpt:
(§1) Sequence selection was accomplished herein using both tumor regression studies in C57/B6 mice, and interferon-gamma ELISPOT studies in HLA-A2 humanized transgenic mice. […] In the HLA-A2 mouse model ELISPOT study, at least 20 spots per million splenocytes was regarded to be a positive response.
This example highlights the approach to evaluating T-cell responses using ELISPOT studies in humanized HLA-A2 transgenic mice. In these studies, the vaccine contained the selected peptide at a concentration of 0.1-3.0 mg/mL and cationic liposomes when used, at a concentration of 0.2-3.0 mg/mL. Humanized HLA-A2 transgenic mice having components of the human immune system capable of recognizing human antigens were vaccinated on day 0 and day 7 with 100 uL of the vaccine. On day 14 the mice were sacrificed and HPV-specific immune response evaluated by interferon-gamma ELISPOT using standard approaches with the splecocytes from the mice (4-8 per group). The splenocytes were stimulated with the specified CD8+ T-cell epitope peptides or the long multi-epitope peptides specified in Table 2. The number of IFN-g spots per million cells is listed for the specified examples. […] The ability of the humanized transgenic mice to successfully generate a T-cell immune response (>20 spots) when stimulated with each of the long multi-epitope peptides as well as short single epitope peptides confirms that the selected peptides are effectively processed and presented to T-cells. In these studies, un-stimulated splenocytes and splenocytes stimulated with irrelevant peptides were both used together as negative controls in every assay. For the positive control in the assay ConA was used.
The present study was performed to evaluate the effect of chemical modification of select peptides on immunogenicity and their ability to be processed, presented and to prime human CD8+ HPV-specific T-cell responses. Peptides corresponding to SEQ ID NO: 23 and 25 contain cysteines which upon oxidation lead to the formation of dimers and other multimers. Two vaccine formulations were prepared containing peptides corresponding to SEQ ID NO: 23 and 25.
In Formulation A: Both peptides were monomeric with high purity confirmed by HPLC analysis. The vaccine contained 1.5-1.6 mg/mL of each peptide.
In Formulation B: Significant oxidation and multimer formation of both peptides was confirmed by HPLC analysis.
Both formulations were mixed 1:1 with 5.8 mg/mL of R-DOTAP prior to vaccination.
The immunogenicity of the peptides was compared as described in the above examples in 10 HLA-A2 mice per formulation by evaluating the ability to induce CD8+ T-cells. ELISPOT studies were performed as described above.

Assay [2] deals with TC-1 tumor. Kind of assay: TC-1 tumor regression screening of peptides in C57/B6 mice. In kind it is in vivo. Further details: key: Positive: a positive T-cell response was a T-cell response that resulted in regression of the tumor. The settings on record: TC-1 tumors in C57/B6 mice, vaccinated day 7, peptide alone or with cationic lipid.
Description: as §1
This example illustrates the evaluation or screening of several HPV16 E7 peptides in the TC-1 mouse tumor regression model for their effective processing and presentation of the key epitopes leading to HPV-specific T-cell induction and subsequent tumor regression.
In the tumor regression screening studies mice were implanted with 100,000 TC-1 cells on day 0. On day 7, once the tumors were well established the mice were vaccinated with the specific peptide sequences, either formulated alone or in combination with cationic lipids such as DOTMA, DOEPC or R-DOTAP to facilitate up-take and presentation. In these studies, the vaccine contained the selected peptide at a concentration of 0.1-3.0 mg/mL and cationic liposomes at a concentration of 0.2-3.0 mg/mL. In the cases where the peptide sequences were lipidated by attaching a palmitoyl chain, the peptides were simply mixed with the cationic liposomes prior to vaccination. In the case of the non-lipidated peptides, the liposomes were made and peptides encapsulated by traditional thin film liposome preparation methods (F Szoka, and D Papahadjopoulos, Comparative Properties and Methods of Preparation of Lipid Vesicles (Liposomes), Annual Review of Biophysics and Bioengineering, Vol. 9:467-508, 1980). Other methods well known to those skilled in the art may also have been used.
A sample tumor regression plot showing results for peptides corresponding to SEQ ID NO: 1 (blank square), SEQ ID NOS: 7, 8, 31 32 and 31 (solid black circle), SEQ ID NO: 7 (blank circle), and SEQ ID NO: 8 (solid black triangle) is shown in FIG. 3.

Where [3] appears, read: splenocytes stimulated with LLMGTLGIV (SEQ ID NO: 15).
Where [4] appears, read: splenocytes stimulated with TLGIVCPIC (SEQ ID NO: 22).
Setting [5] is: splenocytes stimulated with TIHDIILECV (SEQ ID NO: 21).
The mark [6] stands for this setting: splenocytes stimulated with YMLDLQPETT (SEQ ID NO: 14).

PalmKSS LLMGTLGIV [SEQ ID NO: 28]: the “Immune Response, Method: ELISPOT” value in assay [1] was “Positive, ELISPOT (at least 20 spots per million splenocytes was regarded to be a positive response)”. The “ELISPOT result Av spots/10^6 cells” value in assay [1] (setting [3]) came out at 96 spots/10^6 cells.

Take “PalmKSS LLMGTLGIVCPICSQKP [SEQ ID NO: 25]”: the “ELISPOT result Av spots/10^6 cells” value in assay [1] (Formulation A (monomeric peptides SEQ ID NO: 23 and 25, with R-DOTAP), stimulated with LLMGTLGIV (SEQ ID NO: 15)) came out at 52 spots/10^6 cells; in assay [1] (Formulation B (oxidized, multimer peptides SEQ ID NO: 23 and 25, with R-DOTAP), stimulated with LLMGTLGIV (SEQ ID NO: 15)) it was 48 spots/10^6 cells; in assay [1] (setting [3]) it was 5 spots/10^6 cells; in assay [1] (splenocytes stimulated with LLMGTLGIVCPICSQKP (SEQ ID NO: 10)), 92 spots/10^6 cells; in assay [1] (setting [4]), 31 spots/10^6 cells. Moreover, the “Immune Response, Method: ELISPOT” value in assay [1] was “Positive, ELISPOT (at least 20 spots per million splenocytes was regarded to be a positive response)”.

As for “TIHDIILECV [SEQ ID NO: 21, printed as E7 29-38 peptide]”, in assay [1], the “Immune Response, Method: ELISPOT” value is listed as “Positive, ELISPOT (at least 20 spots per million splenocytes was regarded to be a positive response)”.

For the compound “QQLLRREVYDFAFRDLCIVYR [SEQ ID NO: 13, printed as E7 42-62 peptide]”, in assay [1], the “Immune Response, Method: ELISPOT” value is listed as “Negative, ELISPOT”. Moreover, in assay [1] (splenocytes stimulated with FAFRDLCIV (SEQ ID NO: 29)), the “ELISPOT result Av spots/10^6 cells” value stood at 6 spots/10^6 cells.

In the case of “ELQTTIHDIILECVYCKQQLL [SEQ ID NO: 11, HPV16 E6 25-45 peptide]”, the “Immune Response, Method: ELISPOT” value in assay [1] is reported as “Positive, ELISPOT (at least 20 spots per million splenocytes was regarded to be a positive response)”. Besides, the “ELISPOT result Av spots/10^6 cells” value in assay [1] (setting [5]) amounted to 262 spots/10^6 cells.

Take “LLMGTLGIVCPICSQKP [SEQ ID NO: 10, HPV16 E7 82-98 peptide]”: the “Immune Response, Method: ELISPOT” value in assay [1] is listed as “Positive, ELISPOT (at least 20 spots per million splenocytes was regarded to be a positive response)”. Further, the “ELISPOT result Av spots/10^6 cells” value stood at 1 spots/10^6 cells in assay [1] (setting [3]) and 27 spots/10^6 cells in assay [1] (setting [4]).

With “KFYSKISEYRHCYYSLYGTTL [SEQ ID NO: 12, printed as E7 75-95 peptide]”, the “Immune Response, Method: ELISPOT” value in assay [1] is given as “Negative, ELISPOT”. The “ELISPOT result Av spots/10^6 cells” value in assay [1] (splenocytes stimulated with KISEYRHCY (SEQ ID NO: 30)) was determined as 15 spots/10^6 cells.

For `CSCC[C@H](NC(=O)[C@@H](N)Cc1ccc(O)cc1)C(=O)N[C@@H](CC(C)C)C(=O)N[C@@H](CC(=O)O)C(=O)N[C@@H](CC(C)C)C(=O)N[C@@H](CCC(N)=O)C(=O)N1CCC[C@H]1C(=O)N[C@@H](CCC(=O)O)C(=O)N[C@H](C(=O)N[C@H](C(=O)O)[C@@H](C)O)[C@@H](C)O` [SEQ ID NO: 14], in assay [1], the “Immune Response, Method: ELISPOT” value was “Positive, ELISPOT (at least 20 spots per million splenocytes was regarded to be a positive response)”. Moreover, the “ELISPOT result Av spots/10^6 cells” value in assay [1] (setting [6]) is given as 580 spots/10^6 cells.

Regarding “PalmKSS ELQTTIHDIILECVYCKQQLL [SEQ ID NO: 23]”, the “ELISPOT result Av spots/10^6 cells” value in assay [1] (Formulation A (monomeric peptides SEQ ID NO: 23 and 25, with R-DOTAP), stimulated with TIHDIILECV (SEQ ID NO: 21)) came to 314 spots/10^6 cells; in assay [1] (Formulation B (oxidized, multimer peptides SEQ ID NO: 23 and 25, with R-DOTAP), stimulated with TIHDIILECV (SEQ ID NO: 21)) it was 158 spots/10^6 cells; in assay [1] (splenocytes stimulated with ELQTTIHDIILECVYCKQQLL (SEQID NO: 13)) it was 8 spots/10^6 cells; in assay [1] (setting [5]), 612 spots/10^6 cells. Besides, the “Immune Response, Method: ELISPOT” value in assay [1] is recorded as “Positive, ELISPOT (at least 20 spots per million splenocytes was regarded to be a positive response)”.

With PalmKSS YMLDLQPETT [SEQ ID NO: 27], the “Immune Response, Method: ELISPOT” value in assay [1] was “Positive, ELISPOT (at least 20 spots per million splenocytes was regarded to be a positive response)”. The “ELISPOT result Av spots/10^6 cells” value in assay [1] (setting [6]) is 280 spots/10^6 cells.

On to “PalmKSS MHGDTPTLHEYMLDLQPETT [SEQ ID NO: 24]”, for which the “Immune Response, Method: ELISPOT” value in assay [1] is recorded as “Positive, ELISPOT (at least 20 spots per million splenocytes was regarded to be a positive response)”. Further, the “ELISPOT result Av spots/10^6 cells” value in assay [1] (splenocytes stimulated with MHGDTPTLHEYMLDLQPETT (SEQ ID NO: 9)) worked out at 284 spots/10^6 cells; in assay [1] (setting [6]) it was 79 spots/10^6 cells.

In the case of “KSS GQAEPDRAHYNIVTF (KSSGQAEPDRAHYNIVTF) [SEQ ID NO: 6, HPV16 E7 43-57 peptide with KSS]”, the “Immune Response, Method: tumor regression” value in assay [2] is given as “Negative, tumor regression”.

On to “PAGQAEPDRAHYNIVTFC [SEQ ID NO: 7, HPV16 E7 41-58 peptide]”, for which, in assay [2], the “Immune Response, Method: tumor regression” value is recorded as “Positive, tumor regression”.

As for `CC[C@H](C)[C@H](NC(=O)CNC(=O)[C@H](CC(C)C)NC(=O)[C@@H](NC(=O)CNC(=O)[C@H](CCSC)NC(=O)[C@H](CC(C)C)NC(=O)[C@@H](N)CC(C)C)[C@@H](C)O)C(=O)N[C@H](C(=O)O)C(C)C` [SEQ ID NO: 15], the “Immune Response, Method: ELISPOT” value in assay [1] is “Positive, ELISPOT (at least 20 spots per million splenocytes was regarded to be a positive response)”.

For the compound `CC[C@H](C)[C@H](NC(=O)CNC(=O)[C@H](CC(C)C)NC(=O)[C@@H](N)[C@@H](C)O)C(=O)N[C@H](C(=O)N[C@@H](CS)C(=O)N1CCC[C@H]1C(=O)N[C@H](C(=O)N[C@@H](CS)C(=O)O)[C@@H](C)CC)C(C)C` [SEQ ID NO: 22], in assay [1], the “Immune Response, Method: ELISPOT” value is recorded as “Positive, ELISPOT (at least 20 spots per million splenocytes was regarded to be a positive response)”.

For the compound MHGDTPTLHEYMLDLQPETT [SEQ ID NO: 9], the “Immune Response, Method: ELISPOT” value in assay [1] is on record as “Positive, EISPOT (at least 20 spots per million splenocytes was regarded to be a positive response)”. In addition, the “ELISPOT result Av spots/10^6 cells” value in assay [1] (setting [6]) worked out at 235 spots/10^6 cells.

With “EPDRAHYNIVTFCCKCDS [SEQ ID NO: 8, HPV16 E7 46-63 peptide]”, in assay [2], the “Immune Response, Method: tumor regression” value was “Negative, tumor regression”.

Consider “GQAEPDRAHYNIVTF [SEQ ID NO: 5, HPV16 E7 43-57 peptide]”, for which the “Immune Response, Method: tumor regression” value in assay [2] is “Positive, tumor regression”.

On to “KSS RAHYNIVTF (KSSRAHYNIVTF) [SEQ ID NO: 4, HPV16 E7 49-57 peptide with KSS]”, for which the “Immune Response, Method: tumor regression” value in assay [2] is reported as “Positive, tumor regression”.

Turning to PalmKSS RAHYNIVTF [SEQ ID NO: 3], the “Immune Response, Method: tumor regression” value in assay [2] was “Positive, tumor regression”.

Regarding “DRAHYNIVTF [SEQ ID NO: 2, HPV16 E7 48-57 peptide]”, the “Immune Response, Method: tumor regression” value in assay [2] was “Negative, tumor regression”.

For “CDSTLRLCVQ STHVDIRT (CDSTLRLCVQSTHVDIRT) [SEQ ID NO: 32, E7 61-78 peptide]”, the “Immune Response, Method: tumor regression” value in assay [2] is “Positive, tumor”.

As to RAHYNIVTF [SEQ ID NO: 1], the “Immune Response, Method: tumor regression” value in assay [2] is “Positive, tumor regression”.
